Measured values as given in ChEMBL document CHEMBL1255229, “Novel antimicrobial peptides that exhibit activity against select agents and other drug resistant bacteria” (2010).
Values after ≈ are worked out from the molar mass of the structure shown. Starred links: 1 amine or outer side, 2 acyl side, 3 side chain; linkers in the order of their positions; H or OH if unused. Non-standard residues stand in square brackets, D forms with d. Residues, ends and D or L forms follow the SMILES beside them. ξ: configuration not given here. Pro(3ξ,4ξ-(CH2)4) = O=C(O)[C@H]1NCC2CCCCC21; X1 = O=C([C@@H]1CN([*:1])C2CCCCC21)[*:2]; Phe(4-F) = N[C@@H](Cc1ccc(F)cc1)C(=O)O; X3 = O=C(C[C@H]1C2CCCCC2CN1[*:1])[*:2]; Tic = O=C(O)[C@@H]1Cc2ccccc2CN1; βAla = NCCC(=O)O

Assays:
Format in all cases: functional
Brucella melitensis = assay: Antimicrobial activity against Brucella melitensis 16 M after 24 hrs
Acinetobacter baumannii [1] = assay: Antimicrobial activity against Acinetobacter baumannii WRAIR after 24 hrs
Burkholderia mallei = assay: Antimicrobial activity against Burkholderia mallei ATCC 23444 after 24 hrs; conditions: ATCC 23444, 24 h
Francisella tularensis = assay: Antimicrobial activity against Francisella tularensis SCHU-S4 after 24 hrs; conditions: SCHU-S4, 24 h
Acinetobacter baumannii [2] = assay: Antimicrobial activity against Acinetobacter baumannii ATCC 19606 after 24 hrs; conditions: ATCC 19606 = CIP 70.34 = JCM 6841, 24 h
Brucella abortus = assay: Antimicrobial activity against Brucella abortus 2308 after 24 hrs; conditions: Brucella abortus, 2308, 24 h
Staphylococcus aureus = assay: Antimicrobial activity against methicillin-resistant Staphylococcus aureus ATCC 33591 after 24 hrs; conditions: ATCC 33591, 24 h
Yersinia pestis = assay: Antimicrobial activity against Yersinia pestis CO92 after 24 hrs; conditions: CO92, 24 h
[3] = test system: Burkholderia pseudomallei; assay: Antimicrobial activity against Burkholderia pseudomallei BURK003(1026b) after 24 hrs
Bacillus anthracis = assay: Antimicrobial activity against Bacillus anthracis Ames after 24 hrs
Brucella suis = assay: Antimicrobial activity against Brucella suis ATCC 23445 after 24 hrs; conditions: ATCC 23445, 24 h

CC(=O)NCC(=O)N[C@@H](Cc1ccc(F)cc1)C(=O)N1Cc2ccccc2C[C@H]1C(=O)N1CC2CCCCC2[C@H]1C(=O)NCC(=O)N[C@@H](CCCCN)C(=O)N1Cc2ccccc2C[C@H]1C(=O)N1CC2CCCCC2[C@H]1C(=O)NCC(=O)N[C@@H](Cc1ccc(F)cc1)C(=O)N1Cc2ccccc2C[C@H]1C(=O)N1CC2CCCCC2[C@H]1C(=O)NCC(=O)N[C@@H](CCCCN)C(=O)N1Cc2ccccc2C[C@H]1C(=O)N[C@@H](CCCCN)C(=O)N[C@@H](CCCCN)C(=O)N[C@@H](CCCCN)C(=O)N[C@@H](CCCCN)C(N)=O (stereo not given in full) (Ac-G[Phe(4-F)][Tic][Pro(3ξ,4ξ-(CH2)4)]GK[Tic][Pro(3ξ,4ξ-(CH2)4)]G[Phe(4-F)][Tic][Pro(3ξ,4ξ-(CH2)4)]GK[Tic]KKKK-NH2)
MIC (Brucella melitensis): 202 µM (≈ 500 µg/mL) | MIC (Acinetobacter baumannii [1]): 6.2 µM (≈ 15.4 µg/mL) | MIC (Burkholderia mallei): 202 µM (≈ 500 µg/mL) | MIC (Francisella tularensis): 202 µM (≈ 500 µg/mL) | MIC (Acinetobacter baumannii [2]): 3.1 µM (≈ 7.68 µg/mL) | MIC (Brucella abortus): 202 µM (≈ 500 µg/mL) | MIC (Staphylococcus aureus): 101 µM (≈ 250 µg/mL) | MIC (Yersinia pestis): 202 µM (≈ 500 µg/mL) | MIC [3]: 202 µM (≈ 500 µg/mL) | MIC (Bacillus anthracis): 12.6 µM (≈ 31.2 µg/mL) | MIC (Brucella suis): 202 µM (≈ 500 µg/mL)

CC(=O)NCC(=O)N[C@@H](Cc1ccccc1)C(=O)N1Cc2ccccc2C[C@H]1C(=O)N1C[C@@H](C(=O)NCC(=O)N[C@@H](CCCCN)C(=O)N2Cc3ccccc3C[C@H]2C(=O)N2C[C@@H](C(=O)NCC(=O)N[C@@H](Cc3ccccc3)C(=O)N3Cc4ccccc4C[C@H]3C(=O)N3C[C@@H](C(=O)NCC(=O)N[C@@H](CCCCN)C(=O)N4Cc5ccccc5C[C@H]4C(=O)NCCC(=O)N[C@@H](CCCCN)C(=O)N[C@@H](CCCCN)C(=O)N[C@@H](CCCCN)C(=O)N[C@@H](CCCCN)C(N)=O)C4CCCCC43)C3CCCCC32)C2CCCCC21 (stereo not given in full) (Ac-GF[Tic][X1]GK[Tic][X1]GF[Tic][X1]GK[Tic][βAla]KKKK-NH2)
MIC (Brucella melitensis): 199 µM (≈ 500 µg/mL) | MIC (Acinetobacter baumannii [1]): 6.2 µM (≈ 15.6 µg/mL) | MIC (Burkholderia mallei): 199 µM (≈ 500 µg/mL) | MIC (Francisella tularensis): 199 µM (≈ 500 µg/mL) | MIC (Acinetobacter baumannii [2]): 6.2 µM (≈ 15.6 µg/mL) | MIC (Brucella abortus): 199 µM (≈ 500 µg/mL) | MIC (Staphylococcus aureus): 199 µM (≈ 500 µg/mL) | MIC (Yersinia pestis): 199 µM (≈ 500 µg/mL) | MIC [3]: 199 µM (≈ 500 µg/mL) | MIC (Bacillus anthracis): 12.4 µM (≈ 31.2 µg/mL) | MIC (Brucella suis): 199 µM (≈ 500 µg/mL)

CC(=O)NCC(=O)N[C@@H](Cc1ccccc1)C(=O)N[C@@H](Cc1ccccc1)C(=O)N1CC2CCCCC2[C@H]1C(=O)NCC(=O)N[C@@H](CCCCN)C(=O)N[C@@H](Cc1ccccc1)C(=O)N1CC2CCCCC2[C@H]1C(=O)NCC(=O)N[C@@H](Cc1ccccc1)C(=O)N[C@@H](Cc1ccccc1)C(=O)N1CC2CCCCC2[C@@H]1CC(=O)N[C@@H](CCCCN)C(=O)N[C@@H](Cc1ccccc1)C(=O)N[C@@H](CCCCN)C(=O)N[C@@H](CCCCN)C(=O)N[C@@H](CCCCN)C(=O)N[C@@H](CCCCN)C(N)=O (stereo not given in full) (Ac-GFF[Pro(3ξ,4ξ-(CH2)4)]GKF[Pro(3ξ,4ξ-(CH2)4)]GFF[X3]KFKKKK-NH2)
MIC (Brucella melitensis): 26 µM (≈ 61.1 µg/mL) | MIC (Acinetobacter baumannii [1]): 3.2 µM (≈ 7.52 µg/mL) | MIC (Burkholderia mallei): 208 µM (≈ 489 µg/mL) | MIC (Francisella tularensis): 0.01 µM (≈ 0.0235 µg/mL) | MIC (Acinetobacter baumannii [2]): 3.2 µM (≈ 7.52 µg/mL) | MIC (Brucella abortus): 26 µM (≈ 61.1 µg/mL) | MIC (Staphylococcus aureus): 208 µM (≈ 489 µg/mL) | MIC (Yersinia pestis): 3.2 µM (≈ 7.52 µg/mL) | MIC [3]: 208 µM (≈ 489 µg/mL) | MIC (Bacillus anthracis): 0.2 µM (≈ 0.47 µg/mL) | MIC (Brucella suis): 26 µM (≈ 61.1 µg/mL)

CC1(C)S[C@@H]2[C@H](NC(=O)[C@H](N)c3ccccc3)C(=O)N2[C@H]1C(=O)O [AMPICILLIN]
MIC (Brucella melitensis): 11 µM (≈ 3.84 µg/mL) | MIC (Acinetobacter baumannii [1]): 1430 µM (≈ 500 µg/mL) | MIC (Burkholderia mallei): 0.09 µM (≈ 0.0314 µg/mL) | MIC (Francisella tularensis): 0.09 µM (≈ 0.0314 µg/mL) | MIC (Acinetobacter baumannii [2]): 179 µM (≈ 62.5 µg/mL) | MIC (Brucella abortus): 11 µM (≈ 3.84 µg/mL) | MIC (Staphylococcus aureus): 93 µM (≈ 32.5 µg/mL) | MIC (Yersinia pestis): 0.8 µM (≈ 0.28 µg/mL) | MIC [3]: 0.09 µM (≈ 0.0314 µg/mL) | MIC (Bacillus anthracis): 0.4 µM (≈ 0.14 µg/mL) | MIC (Brucella suis): 0.8 µM (≈ 0.28 µg/mL)

CC(C)C[C@H](NC(=O)[C@@H](N)CCCCN)C(=O)N1Cc2ccccc2C[C@H]1C(=O)N1C[C@@H](C(=O)N[C@@H](CCCCN)C(=O)N2Cc3ccccc3C[C@H]2C(=O)N2C[C@@H](C(=O)N[C@@H](Cc3ccccc3)C(=O)N3Cc4ccccc4C[C@H]3C(=O)N3C[C@@H](C(=O)N[C@@H](CCCCN)C(=O)N4Cc5ccccc5C[C@H]4C(=O)N4C[C@@H](C(=O)N[C@@H](Cc5ccccc5)C(=O)N5Cc6ccccc6C[C@H]5C(=O)N5C[C@@H](C(=O)N[C@@H](CCCCN)C(=O)N6Cc7ccccc7C[C@H]6C(=O)N6C[C@@H](C(=O)N[C@@H](CCCCN)C(=O)N[C@@H](CCCCN)C(=O)N[C@@H](CCCCN)C(=O)N[C@@H](CCCCN)C(N)=O)C7CCCCC76)C6CCCCC65)C5CCCCC54)C4CCCCC43)C3CCCCC32)C2CCCCC21 (stereo not given in full) (H-KL[Tic][X1]K[Tic][X1]F[Tic][X1]K[Tic][X1]F[Tic][X1]K[Tic][X1]KKKK-NH2)
MIC (Brucella melitensis): 150 µM (≈ 497 µg/mL) | MIC (Acinetobacter baumannii [1]): 150 µM (≈ 497 µg/mL) | MIC (Burkholderia mallei): 150 µM (≈ 497 µg/mL) | MIC (Francisella tularensis): 150 µM (≈ 497 µg/mL) | MIC (Acinetobacter baumannii [2]): 9.3 µM (≈ 30.8 µg/mL) | MIC (Brucella abortus): 150 µM (≈ 497 µg/mL) | MIC (Staphylococcus aureus): 150 µM (≈ 497 µg/mL) | MIC (Yersinia pestis): 150 µM (≈ 497 µg/mL) | MIC [3]: 150 µM (≈ 497 µg/mL) | MIC (Bacillus anthracis): 150 µM (≈ 497 µg/mL) | MIC (Brucella suis): 150 µM (≈ 497 µg/mL)
